{"source": "patent US20260242390A1", "about": "“TOTAL SYNTHESES OF PORTIMINE A AND ANALOGUES THEREOF AS SMALL MOLECULE MODULATORS OF NMD3” (priority 2023, published 2026)", "key": {"[1]": {"system": "XPO1", "experiment": "XPO1 protein level in Jurkat cells", "type": "cell-based, human", "experimental": "(§1) FIG. 7. Portimine A targets NMD3 and prevents polysome formation. […] (A) Immunoblot showing reduced NMD3 levels in shNMD3 Jurkat and HeLa cells. […] Jurkat cells were treated with 12.5 nM of PA for 12 or 24 hours. Jurkat and HeLa cells were treated with 5 nM or 150 nM of PA for 24 hours. Data represents mean±SD of biologically replicated experiments (n=3). […] Cell lysates were fractionated by sucrose gradient (5-50%) and each fraction were analyzed by western blot. eIF6 levels increase in 60S subunit fraction and decrease in ribosome-free fractions after PA treatment. RPS6, a 40S and polysome subunits marker, is decreased in polysome fractions after PA treatment. Results are representative of three independent experiments. […] Relative protein levels in each fraction were normalized to the peak fraction of the indicated protein from the DMSO cells and plotted. Data represents mean±SD of biologically replicated experiments (n=3). Statistical analysis was performed using multiple unpaired Student t-test. * p≤0.05; ** p≤0.01; *** p≤0.005; **** p≤0.0001. Treatment condition: Jurkat (5 M per condition); Incubate cells (1 M/mL) with inhibitors for 6 hr, 12 hr and 24 hr, respectively.\n(§2) • 1) Portimine A and its functional analogs show stereo-selective acute toxicity in cancer cells (FIG. 1). […] (B) Structure of portimine related analogs: phenyl-portimine A (Ph-PA, 36) and epi-portimine A (ePA, 38). […]"}, "[2]": {"system": "U118", "experiment": "Broad cell line profiling, U118", "type": "cell-based", "conditions": "Homo sapiens; U118, Glioblastoma; read-out: PA IC50", "description": "(§3) • A panel of human and mouse cancer cell types used to assess the breadth of PA activity, including multiple therapy resistant metastatic mesenchymal tumor cell lines and primary glioblastoma patient-derived metastatic stem/tumor initiating cell populations."}, "[3]": {"system": "Bcl2", "experiment": "Bcl2 protein level in Jurkat cells", "type": "cell-based, human", "conditions": "6/12 hrs", "experimental": "as §1, §2"}, "[4]": {"system": "p53", "experiment": "p53 protein level in Jurkat cells", "type": "cell-based, human", "experimental": "as §1, §2"}, "[5]": {"system": "A673", "experiment": "Broad cell line profiling, A673", "type": "cell-based", "conditions": "A673, Human Ewings Sarcoma; read-out: PA IC50", "description": "as §3"}, "[6]": {"system": "MD-MBA-231", "experiment": "Broad cell line profiling, MD-MBA-231", "type": "cell-based", "conditions": "Homo sapiens; MD-MBA-231, TNBC Breast Adenocarcinoma; read-out: PA IC50", "description": "as §3"}, "[7]": {"conditions": "in vivo; cited from earlier work"}, "[8]": {"system": "SUM159", "experiment": "Broad cell line profiling, SUM159", "type": "cell-based", "conditions": "Homo sapiens; SUM159, Breast Adenocarcinoma; read-out: PA IC50", "description": "as §3"}, "[9]": {"system": "shNMD3 Jurkat and HeLa cells", "experiment": "Toxicity in NMD3 knock-down (shNMD3) cells", "type": "cell-based, human", "conditions": "Jurkat 12.5 nM 12 or 24 hours; Jurkat and HeLa 5 nM or 150 nM 24 hours", "experimental": "as §1, §2"}, "[10]": {"system": "LN229", "experiment": "Broad cell line profiling, LN229", "type": "cell-based", "conditions": "Homo sapiens, LN-229; LN229, Glioblastoma; read-out: PA IC50", "description": "as §3"}, "[11]": {"system": "U87EGFRvIII", "experiment": "Broad cell line profiling, U87EGFRvIII", "type": "cell-based", "conditions": "Homo sapiens, EGFRvIII Expressing Glioblastoma, read-out: PA IC50", "description": "as §3"}}}
{"smiles": "C=CC1=C[C@@H]2[C@@H]3O[C@]4(CC[C@H](O4)C(C)C[C@@H](O)C3=O)CC(O)C3=NCC[C@@]32CC1", "note": "(some centres unmarked) [PA, portimine A]", "values": [{"measurement": "XPO1 levels", "setting": "[1]", "value": "unaffected"}, {"measurement": "IC50", "setting": "[2]", "value": 5.6, "unit": "nM"}, {"measurement": "Bcl2 levels", "setting": "[3]", "value": "does not affect"}, {"measurement": "p53 level", "setting": "[4]", "value": "downregulated"}, {"measurement": "IC50", "setting": "[5]", "value": 2.5, "unit": "nM"}, {"measurement": "IC50", "setting": "[6]", "value": 0.68, "unit": "nM"}, {"measurement": "LD50", "setting": "[7]", "value": 1.57, "unit": "mg/kg"}, {"measurement": "IC50", "setting": "[8]", "value": 1.9, "unit": "nM"}, {"measurement": "toxic effects in shNMD3 compared to shCtrl cells", "setting": "[9]", "value": "less toxic effects"}, {"measurement": "IC50", "setting": "[10]", "value": 1.1, "unit": "nM"}, {"measurement": "IC50", "setting": "[11]", "value": 3.4, "unit": "nM"}]}
